This passage reports mortality results from patent publication US6495577B2, “Pesticidal composition” (Aventis CropScience GmbH, priority 2000, dated 2002).

For this assay, the system named is Trialeurodes vaporariorum. Put plainly: Mortality of whitefly nymphs on sprayed French bean plants (greenhouse). In kind it is in vivo. To be noted: 240 h, 10 days after application. An excerpt: The invention is illustrated in the following Example which describe experiments in which a synergistic effect was observed. The desired concentration of the active ingredients was achieved by diluting, with water, the commercially available 25% by volume emulsifiable concentrate of deltamethrin and 20% by weight water soluble powder of acetamiprid, each of which contained conventional surfactants.
Two plants of two week old French beans (Phaseolus vulgaris) were infested with adult whitefly (Trialeurodes vaporariorum) for oviposition in a closed chamber. After 48 hours, the adults were blown off the plants so that only the eggs stayed at the surface of the leaves. The plants were placed in a greenhouse for 7 days to complete the development of the eggs to the larval stage L 1/2. The plants were then sprayed with the individual compounds and mixtures of the two, by hand with a spray gun, until complete coverage of the plant surfaces with the spray liquid was obtained. The plants were then placed in the greenhouse for a further 10 days. Two replicates of each test was carried. The mortality of the nymphs of Trialeurodes vaporadorum was estimated 10 days after application and the average of the two replicates calculated.
To indicate the existence of synergism between the active components, the results were treated in the manner described by Colby S. R., “Calculating Synergistic and Antagonistic Responses of Herbicide Combinations,” Weeds, 1967, 15, 20-22. In this method, the “expected” percent control, E, of the combination is given by the equation: [formula]
The LC50 in ppm of the mixtures was calculated and compared with the expected LC50 from the expected mortalities according to Colby.

Consider `CC1(C)[C@H](C(=O)O[C@H](C#N)c2cccc(Oc3ccccc3)c2)[C@@H]1C=C(Br)Br` [deltamethrin, (S)-α-cyano-3-phenoxybenzyl (1R,3R)-3-(2,2-dibromvinyl)-2,2-dimethylcyclopropanecarboxylate], for which, where the note is “deltamethrin 0,01 ppm alone”, the mortality – broadly, the percentage killed – at 0.01 ppm was found to be 0.75%. Also, the mortality at 0.1 ppm (deltamethrin 0,1 ppm alone) worked out at 25%. Besides, the mortality at 0.02 ppm (deltamethrin 0,02 ppm alone) stood at 2.5%. Besides, the mortality at 0.2 ppm (deltamethrin 0,2 ppm alone) turned out to be 36.2%. Moreover, the mortality at 0.06 ppm (deltamethrin 0,06 ppm alone) was 15%. The mortality at 0.6 ppm (deltamethrin 0,6 ppm alone) came to 47.5%. Further, the mortality at 0.33 ppm (deltamethrin 0,33 ppm alone) came out at 47.5%. For the setting “deltamethrin 1 ppm alone”, the mortality at 1 ppm is 73.8%. In addition, the mortality at 0.006 ppm (deltamethrin 0,006 ppm alone) came to 0%. In addition, where the note is “deltamethrin 0,033 ppm alone”, the mortality at 0.033 ppm came to 8.75%.
Consider `C/C(=N\C#N)N(C)Cc1ccc(Cl)nc1` [acetamiprid, E-N^1-[(6-chloro-3-pyridylmethyl)]-N^2-cyano-N^1-methylacetamidine], for which the mortality at 0.1 ppm (acetamiprid 0,1 ppm alone) is 1.25%. Where the note is “acetamiprid 0,03 ppm alone”, the mortality at 0.03 ppm stood at 0%. For the setting “acetamiprid 0,3 ppm alone”, the mortality at 0.3 ppm came to 7.5%. Also, the mortality at 1 ppm (acetamiprid 1 ppm alone) was determined as 23.8%. For the setting “acetamiprid 3 ppm alone”, the mortality at 3 ppm was 56.2%.
